The target of assay [1] is T1, cloned human serotonin 5-HT1A receptor (Homo sapiens, UniProt P08908).
T1 sequence (P08908 1-422): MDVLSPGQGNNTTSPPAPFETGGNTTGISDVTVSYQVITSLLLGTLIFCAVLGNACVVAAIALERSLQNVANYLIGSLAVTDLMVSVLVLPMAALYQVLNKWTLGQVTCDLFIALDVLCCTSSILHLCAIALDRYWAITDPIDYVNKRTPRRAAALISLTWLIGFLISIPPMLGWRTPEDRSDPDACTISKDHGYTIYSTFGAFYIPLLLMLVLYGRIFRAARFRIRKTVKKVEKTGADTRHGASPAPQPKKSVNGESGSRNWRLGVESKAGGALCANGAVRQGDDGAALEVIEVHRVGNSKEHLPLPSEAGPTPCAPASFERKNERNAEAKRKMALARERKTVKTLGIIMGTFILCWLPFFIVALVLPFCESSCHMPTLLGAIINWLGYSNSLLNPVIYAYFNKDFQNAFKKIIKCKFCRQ
As to the kind of experiment: radioligand binding. As to conditions: for affinity for 5-HT1A receptor: stated in words.

The target of assay [2] is cloned human serotonin 5-HT2A receptor (Homo sapiens, UniProt P28223). As to the kind of experiment: radioligand binding. As to conditions: for Binding Affinity (Ki nM) 5-HT2A±SEM: n = 3, ND = not detected at highest concentration tested.
Sequence of cloned human serotonin 5-HT2A receptor (P28223 whole entry): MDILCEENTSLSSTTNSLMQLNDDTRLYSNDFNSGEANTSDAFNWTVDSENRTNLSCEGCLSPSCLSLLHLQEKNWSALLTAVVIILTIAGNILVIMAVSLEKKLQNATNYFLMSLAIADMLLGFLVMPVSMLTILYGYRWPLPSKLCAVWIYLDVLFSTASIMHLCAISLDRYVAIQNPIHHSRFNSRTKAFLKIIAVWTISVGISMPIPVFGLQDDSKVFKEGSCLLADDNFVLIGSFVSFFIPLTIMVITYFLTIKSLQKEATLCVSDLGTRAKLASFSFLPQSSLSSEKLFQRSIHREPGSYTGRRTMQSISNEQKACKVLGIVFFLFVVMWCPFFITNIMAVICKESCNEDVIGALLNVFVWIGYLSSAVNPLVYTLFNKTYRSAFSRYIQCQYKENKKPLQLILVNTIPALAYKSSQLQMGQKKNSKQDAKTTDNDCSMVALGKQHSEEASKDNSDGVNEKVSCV
Assay [3] has as its target T2, cloned human serotonin 5-HT2C receptor (Homo sapiens, UniProt P28335).
T2 sequence (P28335 33-458): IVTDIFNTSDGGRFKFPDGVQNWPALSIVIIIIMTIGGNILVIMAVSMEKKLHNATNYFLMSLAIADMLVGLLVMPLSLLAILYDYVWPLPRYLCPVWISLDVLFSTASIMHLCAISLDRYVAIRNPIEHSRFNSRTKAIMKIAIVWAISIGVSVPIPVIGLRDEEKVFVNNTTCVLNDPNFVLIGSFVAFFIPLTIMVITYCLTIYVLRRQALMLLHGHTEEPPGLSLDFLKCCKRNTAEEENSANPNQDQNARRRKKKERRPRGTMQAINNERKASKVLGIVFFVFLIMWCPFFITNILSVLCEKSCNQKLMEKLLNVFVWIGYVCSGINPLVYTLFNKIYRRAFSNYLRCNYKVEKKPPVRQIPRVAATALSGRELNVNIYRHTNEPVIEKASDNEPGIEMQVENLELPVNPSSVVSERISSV
Put plainly: radioligand binding.

The test system of assay [4] is human serotonin 5-HT2C receptor. As to conditions: isolated natural product; cited from earlier work.
Where [5] appears, read: read-out: radioligand affinity KD ± S.D., saturation isotherm.

The structures appear in SMILES notation.

The values that follow come from paper PMC2946983 (Bioorganic & medicinal chemistry, 2010).

`CN1C(=N)N(C)/C(=C/c2c[nH]c3cc(Cl)c(Cl)cc23)C1=O` [Compound 16, (E)-5-[(5,6-dichloro-1H-indol-3-yl)methylene]-2-imino-1,3-dimethylimidazolidin-4-one]: in assay [1], the “affinity for 5-HT1A receptor” value is reported as “no detectable affinity”. Further, the “Binding Affinity (Ki nM) 5-HT2A±SEM” value in assay [2] is “no detectable affinity”.
For the molecule `CN1C(=N)NC(=O)/C1=C\c1c[nH]c2cc(Cl)c(Cl)cc12` [Compound 4, (E)-2-amino-5-[(5,6-dichloro-1H-indol-3-yl)methylene]-1-methyl-1H-imidazol-4(5H)-one], the “affinity for 5-HT1A receptor” value in assay [1] is on record as “little or no apparent affinity”. Moreover, the “Binding Affinity (Ki nM) 5-HT2A±SEM” value in assay [2] is listed as “little or no apparent affinity”. The “Binding Affinity (Ki nM) 5-HT2C±SEM” value in assay [3] (n = 3) was “little or no apparent affinity”.
With `CN1C(=N)N(C)/C(=C/c2c[nH]c3cc(Br)ccc23)C1=O` [Compound 15, 5-(6-bromo-1H-indol-3-ylmethylene)-2-imino-1,3-dimethyl-imidazolidin-4-one], in assay [2], the “Binding Affinity (Ki nM) 5-HT2A±SEM” value was “not detectable”. Also, in assay [3], the “Ki Selectivity Ratio 5-HT2A/5-HT2C” value was >45.
With `CN1C(=N)N(C)/C(=C/c2c[nH]c3cc(Cl)ccc23)C1=O` [Compound 14, (E)-5-[(6-chloro-1H-indol-3yl)methylene]-2-imino-1,3-dimethylimidazolidin-4-one], the “affinity for 5-HT1A receptor” value in assay [1] is listed as “lack of affinity”. Also, in assay [2], the “Binding Affinity (Ki nM) 5-HT2A±SEM” value is recorded as “lack of affinity”.
Turning to `CN1CN(c2ccccc2)C2(CCN(CCCC(=O)c3ccc(F)cc3)CC2)C1=O` [[^3H]methylspiperone, N-Methyl-8-[4-(4-fluorophenyl)-4-oxobutyl]-1-phenyl-1,3,8-triazaspiro-[4.5]decan-4-one, reference compound], the Kd (commonly the constant that tells how readily two partners part at equilibrium) in assay [2] (setting [5]) turned out to be 0.246 ± 0.042 nM.
In the case of `CN1C(=N)NC(=Cc2c[nH]c3cc(Br)ccc23)C1=O` [6-bromo-2′-de-N-methylaplysinopsin], in assay [4], the “selectivity for 5-HT2C over 5-HT2A receptor” value is given as > 40 fold.
In the case of `COc1ccccc1N1CCN(CCN(C(=O)c2ccc(F)cc2)c2ccccn2)CC1` [[^3H]MPPF, 4-(2′-Methoxy)-phenyl-1-[2′-(N-2″-pyridinyl)-p-fluorobenzamido]ethyl-piperazine, reference compound], the Kd in assay [1] (setting [5]) stood at 0.267 ± 0.036 nM.
